From patent US10946007B2, “4-[2-(2-fluorophenoxymethyl)phenyl]piperidine compounds” (THERAVANCE BIOPHARMA R&D IP, LLC, priority 2008, dated 2021) come the findings set out here.

SMILES strings stand for the structures.

T2 sequence (P23975 whole entry): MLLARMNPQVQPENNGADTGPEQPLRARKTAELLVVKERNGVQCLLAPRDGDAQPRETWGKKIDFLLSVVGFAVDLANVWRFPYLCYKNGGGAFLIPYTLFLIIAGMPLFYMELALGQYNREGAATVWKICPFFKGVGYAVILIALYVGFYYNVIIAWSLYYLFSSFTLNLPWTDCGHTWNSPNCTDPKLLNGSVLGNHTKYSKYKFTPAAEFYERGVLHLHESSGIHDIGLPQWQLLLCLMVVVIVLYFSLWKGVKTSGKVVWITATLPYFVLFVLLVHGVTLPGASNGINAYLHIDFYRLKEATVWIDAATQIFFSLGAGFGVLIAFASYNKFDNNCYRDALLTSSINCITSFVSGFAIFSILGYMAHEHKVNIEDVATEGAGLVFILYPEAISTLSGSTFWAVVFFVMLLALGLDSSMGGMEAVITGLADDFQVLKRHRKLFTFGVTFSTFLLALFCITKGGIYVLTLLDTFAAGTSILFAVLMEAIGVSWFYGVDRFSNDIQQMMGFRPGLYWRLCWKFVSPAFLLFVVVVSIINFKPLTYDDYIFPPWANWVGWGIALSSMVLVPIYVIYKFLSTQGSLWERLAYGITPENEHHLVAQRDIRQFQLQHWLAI

In the first experiment the target is T1, hSERT (Homo sapiens, UniProt P31645).
T1 construct: expressed in transfected cells; host or cells: HEK-293
T1 sequence (P31645 whole entry): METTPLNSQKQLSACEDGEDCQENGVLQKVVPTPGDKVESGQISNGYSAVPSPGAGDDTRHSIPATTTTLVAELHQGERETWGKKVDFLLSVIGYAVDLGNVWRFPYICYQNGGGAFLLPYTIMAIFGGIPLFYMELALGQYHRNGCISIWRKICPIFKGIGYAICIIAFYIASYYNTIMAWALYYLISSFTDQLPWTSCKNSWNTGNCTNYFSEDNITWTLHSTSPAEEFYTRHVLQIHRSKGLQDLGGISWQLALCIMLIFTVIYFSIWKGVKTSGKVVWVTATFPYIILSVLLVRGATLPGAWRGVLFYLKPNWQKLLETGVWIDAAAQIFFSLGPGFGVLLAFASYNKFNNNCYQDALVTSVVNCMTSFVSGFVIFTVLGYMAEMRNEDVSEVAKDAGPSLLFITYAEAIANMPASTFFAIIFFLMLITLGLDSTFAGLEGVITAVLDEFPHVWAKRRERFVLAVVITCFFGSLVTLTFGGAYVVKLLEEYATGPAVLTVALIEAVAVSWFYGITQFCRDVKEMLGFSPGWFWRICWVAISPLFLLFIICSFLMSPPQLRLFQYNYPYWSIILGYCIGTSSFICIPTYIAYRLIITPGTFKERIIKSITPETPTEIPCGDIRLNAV
The experiment is described as follows: hSERT membrane radioligand binding assay (Assay 1, 3H-citalopram). Particulars: Assay 1, membranes of HEK-293 cells expressing hSERT; read-out: SERT pKi (converted). How it is done:
(§1) Membrane radioligand binding assays were used to measure competitive inhibition of labeled ligand (^3H-citalopram or ^3H-nisoxetine or ^3H-WIN35428) binding to membranes prepared from cells expressing the respective human recombinant transporter (hSERT or hNET or hDAT) in order to determine the pKi values of test compounds at the transporters.
(§2) Recombinant human embryonic kidney (HEK-293) derived cell lines stably transfected with hSERT or hNET, respectively, were grown in DMEM medium supplemented with 10% dialyzed FBS (for hSERT) or FBS (for hNET), 100 μg/ml penicillin, 100 μg/ml streptomycin, 2 mM L-glutamine and 250 μg/ml of the aminoglycoside antibiotic G418, in a 5% CO2 humidified incubator at 37° C. When cultures reached 80% confluence, the cells were washed thoroughly in PBS (without Ca^2+ and Mg^2+) and lifted with 5 mM EDTA in PBS. Cells were pelleted by centrifugation, resuspended in lysis buffer (10 mM Tris-HCl, pH7.5 containing 1 mM EDTA), homogenized, pelleted by centrifugation, then resuspended in 50 mM Tris-HCl, pH 7.5 and 10% sucrose at 4° C. Protein concentration of the membrane suspension was determined using a Bio-Rad Bradford Protein Assay kit. Membranes were snap frozen and stored at −80° C. Chinese hamster ovary membranes expressing hDAT (CHO-DAT) were purchased from PerkinElmer and stored at −80° C.
(§3) Binding assays were performed in a 96-well assay plate in a total volume of 200 μl assay buffer (50 mM Tris-HCl, 120 mM NaCl, 5 mM KCl, pH 7.4) with 0.5, 1, and 3 μg membrane protein, for SERT, NET and DAT, respectively.
(§4) Stock solutions (10 mM in DMSO) of test compound were prepared and serial dilutions made using Dilution Buffer (50 mM Tris-HCl, 120 mM NaCl, 5 mM KCl, pH 7.4, 0.1% BSA, 400 μM ascorbic acid).
(§5) Following a 60 minute incubation at 22° C. (or a period sufficient to reach equilibrium), the membranes were harvested by rapid filtration over a 96-well UniFilter GF/B plate, pretreated with 0.3% polyethyleneimine, and washed 6 times with 300 μl wash buffer (50 mM Tris-HCl, 0.9% NaCl, pH 7.5 at 4° C.). Plates were dried overnight at room temperature, 45 μl of MicroScint™-20 (Perkin Elmer) added and bound radioactivity quantitated via liquid scintillation spectroscopy. Competitive inhibition curves and saturation isotherms were analyzed using GraphPad Prism Software package (GraphPad Software, Inc., San Diego, Calif.). IC50 values were generated from concentration response curves using the Sigmoidal Dose Response (variable slope) algorithm in Prism GraphPad.
As to `Clc1ccccc1OCc1ccccc1C1CCNCC1` [Compound 2-chloro], the Ki is 3.98 nM.
Regarding `Cc1ccccc1OCc1ccccc1C1CCNCC1` [Compound 2-methyl], the Ki is 1.58 nM.
On the same count and under the same terms, with `Fc1ccccc1OCc1ccccc1C1CCNCC1` [Compound 3-1] the figure was 12.6 nM; with `c1ccc(OCc2ccccc2C2CCNCC2)cc1` [unsubstituted], 31.6 nM.

Another experiment concerns the target T2, hNET (Homo sapiens, UniProt P23975).
T2 construct: expressed in transfected cells; host or cells: HEK-293
The experiment is described as follows: hNET membrane radioligand binding assay (Assay 1, 3H-nisoxetine). Particulars: Assay 1, membranes of HEK-293 cells expressing hNET; read-out: NET pKi (converted). How it is done: as §1, §2, §3, §4, §5
As to `Clc1ccccc1OCc1ccccc1C1CCNCC1` [Compound 2-chloro], the Ki is 31.6 nM.
Still for that read-out and setting: with `Cc1ccccc1OCc1ccccc1C1CCNCC1` [Compound 2-methyl] the figure was 31.6 nM.
Still for that read-out and setting: to `Fc1ccccc1OCc1ccccc1C1CCNCC1` [Compound 3-1] belongs 5.01 nM; to `c1ccc(OCc2ccccc2C2CCNCC2)cc1` [unsubstituted], 39.8 nM.
